What was measured:
[1] = test system: FFA-activated K^+ current of cultured human corneal epithelial cells; experiment: Perforated-patch whole-cell patch clamp, pharmacological activators (FFA-activated current); assay type: cell-based; details: for effect on the FFA-activated current: 3 mM TEA or 5 mM Ba^+2
Experimental: (§1) Single cells for patch clamp analysis of transfected and non-transfected cells were obtained by washing cultured cells free of culture medium using PBS containing 0.53 mM EDTA and then incubating with Ca^+2 and Mg^+2 free Hanks' balanced salt solution (GIBCO) containing 0.05% trypsin and 0.53 mM EDTA for 2 minutes at 37° C. in a 5% CO2 incubator. Loose cells were aspirated into a Pasteur pipette and transferred into a conical tube containing Media 199 (Sigma, St. Louis, Mo.) supplemented with 10% FCS (Sigma, St. Louis, Mo.). Isolated cells were transferred to an inverted microscope mounted with an external stage, placed into an acrylic chamber filled with Ringer's solution, and allowed to settle and attach to the glass bottom.
Macroscopic currents in single cells were examined using the perforated-patch configuration of the whole-cell patch-clamp technique with amphotericin B as the perforating agent. The composition of the patch pipette in millimolar was 145 potassium methanesulfonate, 2.5 NaCl, 2.5 CaCl2, 5 HEPES, and […] amphotericin B. Patch pipettes were fabricated from KG-12 capillary glass, coated with Sylgard (Dow Corning, Midland, Mich.) and fire polished. Currents were recorded at room temperature using a patch-clamp amplifier operated by Gateway 486DX2 computer (Gateway 2000, Sioux City, S. Dak.) loaded with pCLAMP software (Axon 200A, Axon Instruments, Foster City, Calif.) for the generation of voltage-clamp protocols. Current recordings were capacity compensated using the amplifier circuitry, sampled between 2 to 5 kHz, filtered between 1 to 2 kHz, and subsequently analyzed with the software program. Voltage-clamp protocols were repeated at least three times to obtain the average current response to a voltage pulse. Current voltage (I-V) relationships were corrected for the junction potential generated by the pipette solution and the amphotericin B-induced Donnan potential by subtracting the difference between the reversal potential of tail currents measured in symmetrical K^+ solutions and the 0 mV potential.
The tests of examples 1.1, 1.2, and 1.3 were repeated following the addition of 100 μM flufenamic acid (FFA) to the NaCl Ringer's bath.
To determine the ion selectivity of this TEA-sensitive FFA-activated current, cultured human corneal epithelial cells were bathed in NaCl Ringer's solution with 100 μM FFA and a family of instantaneous tail currents was generated. The same cells were then bathed in NaCl Ringer's solution with 100 μM FFA and 3 mM TEA and a second family of instantaneous tail currents was generated. An instantaneous tail I-V plot was obtained by digitally subtracting the instantaneous tail responses determined for the same cell bathed with FFA with and without TEA.

[2] = test system: endothelium of reconstructed corneas (Na/K ATPase); experiment: Endothelial function test: corneal thickness by Optical Coherence Tomography after ouabain; assay type: cell-based, human; details: 10^-4M ouabain in DMEM, 2 hours, silicone oil on epithelium; one set of corneas, preliminary
Description: Ouabain, a cardiac glycoside, inhibits Na/K ATPase, disrupting corneal endothelial functioning. When this is applied to the cornea, the endothelium looses its pumping function, and without this, the cornea will swell (Watsky et al. 1990).
1. Corneas were reconstructed in 30 mm inserts. In this experiment, we have contructed them with the epithelium down.
2. A whole cornea was immersed in DMEM only.
3. At the start of the experiment, medium outside insert was removed and replaced with silicone oil. This essentially seals off the epithelium. Corneal thickness was measured using Optical Coherence Tomography (OCT) (Humphrey Instruments, Carl Zeiss, Inc.). Four readings were taken from each cornea and the average was taken.
4. DMEM within the control insert was replaced with 1 ml of fresh DMEM only. Experimental cornea was treated with 10^-4M ouabain in DMEM.
5. After 2 hours, the corneal thicknesses were measured by OCT.
6. Changes in corneal thickness (if any) was calculated.

reconstructed corneas [3] = experiment: Responses of reconstructed corneas to aqueous test chemicals (wound, corneal transparency); assay type: cell-based, human; details: 100 μl centrally for 10 min, washed off with saline, re-cultured 3 days; 10% SDS, 0.01% benzalkonium chloride solution
Experimental: Each cornea was exposed centrally to 100 μl of the test chemical for 10 min, after which the chemical was washed off with saline and the corneas were re-cultured for a further 3 days. The saline-treated cornea served as the control.

reconstructed corneas [4] = experiment: Live-dead staining of reconstructed corneas after chemical exposure; assay type: cell-based, human; details: SDS; 0.01% benzalkonium chloride solution
Description: Live cells are green, while dying or dead cells are orange-red. […] C.

[5] = test system: nonselective cation current of human corneal epithelial cells; experiment: Perforated-patch whole-cell patch clamp, nonselective cation current; assay type: cell-based; details: 1 mM external
Experimental: as §1
Macroscopic currents in single cells were examined using the perforated-patch configuration of the whole-cell patch-clamp technique with amphotericin B as the perforating agent. […] Currents were recorded at room temperature using a patch-clamp amplifier operated by Gateway 486DX2 computer (Gateway 2000, Sioux City, S. Dak.) loaded with pCLAMP software (Axon 200A, Axon Instruments, Foster City, Calif.) for the generation of voltage-clamp protocols. Current recordings were capacity compensated using the amplifier circuitry, sampled between 2 to 5 kHz, filtered between 1 to 2 kHz, and subsequently analyzed with the software program. […]

[6] = test system: primary HUVECs (Normal Cells); experiment: Response to growth factors, primary HUVECs in matrix; assay type: cell-based, human
Experimental: Human umbilical vein endothelial cells (HUVECs) were harvested from umbilical cord veins as previously described (Sirois E, et al., Int. J. Artificial Organs 16:609-619, 1993). They were grown on a gelatin-coated dish until confluence in Medium 199 supplemented with 20% FBS, 90 mg/l of heparin, 2 mM of L-glutamine and 100 μg/ml endothelial cell growth supplement (ECGS). Penicillin (100 I.U./ml), streptomycin sulfate (100 μg/ml) and amphotericin B (0.25 μg/ml) were present in medium. After the first passage, FBS concentration was reduced to 10% and ECGS to 20 μg/ml. Cells were subcultured at a ratio of 1:3 or 1:4 and HUVECs from the 2nd to 4th passages were used in our bioassays. Endothelial cell phenotype was verified by the dii-acetylated low-density lipoprotein (diI-Ac-LDL) uptake and positivity to factor VIII-related antigen antibodies by immunocytochemistry. Cultures were incubated in 5% CO2 atmosphere at 37° C. in saturated humidity. The medium was changed every other day.
The virally transfected HUVECs were tested for functionality by their ability to undergo angiogenesis in a three-dimensional fibrin-containing matrix (FIG. 16); and their ability to sequester acetylated low density lipoprotein labelled with 1,1′-dioctadecyl-3,3,3′,3′-tetramethylindocarbocyanine perchlorate (DiI-Ac-LDL; Biomed. Technol. Inc., Stoughton, Mass.), (FIGS. 17 and 18). […]

[7] = test system: immortalized HUVECs (Cell Lines); experiment: Response to growth factors, immortalized HUVECs in matrix; assay type: cell-based, human
Experimental: For transfection, primary HUVECs were seeded onto uncoated 60 mm tissue culture plates and cultured until 60-70% confluent. They were then immortalized by infection with the HPV16 E6 and E7 genes and selected by G418 resistance as described above.
The virally transfected HUVECs were tested for functionality by their ability to undergo angiogenesis in a three-dimensional fibrin-containing matrix (FIG. 16); and their ability to sequester acetylated low density lipoprotein labelled with 1,1′-dioctadecyl-3,3,3′,3′-tetramethylindocarbocyanine perchlorate (DiI-Ac-LDL; Biomed. Technol. Inc., Stoughton, Mass.), (FIGS. 17 and 18). Immortalized HUVECs can also be maintained in the serum-free medium. As with corneal cell lines, other genes can also be introduced into HUVEC lines. For example, GFP has been introduced by transfection.
During the assays in matrices, cells were grown in serum (10%) supplemented-medium 199 containing heparin, L-glutamine or modified glutamine such as L-Alanyl-L-Glutamine (GlutaMAX™, GIBCO) and antibiotics at the same concentration as described above, without ECGS, but with 50 ng/ml of FGF-2. Serum-free medium has also been used.

In the case of `O=C(O)c1ccccc1Nc1cccc(C(F)(F)F)c1` [FFA, flufenamic acid], the “voltages at which a second FFA-stimulated K^+ current is active” value [1] is reported as “greater than +10 mV”, the “activation voltage of the FFA-stimulated current (I-V plot)” value ([1]; 100 μM FFA) is reported as “about −60 mV” and the “increase in the maximum outward current” value ([1]; 100 μM FFA in NaCl Ringer's bath, versus cells not exposed) is reported as “more than 10 fold”. The “Erev for the TEA-sensitive FFA-activated current” value ([1]; 100 μM FFA with and without 3 mM TEA, digital subtraction of instantaneous tail currents) was “about −80 mV” and the “reversibility of the FFA response” value ([1]; 100 μM FFA, same cell) was “reversible and repeatable”.

With `CC[N+](CC)(CC)CC` [TEA, tetraethylammonium] the “effect on the FFA-activated current” value ([1]; 100 μM FFA) was “blocked”.

`C[C@@H]1O[C@@H](O[C@H]2C[C@@H](O)[C@]3(CO)[C@H]4[C@H](O)C[C@]5(C)[C@@H](C6=CC(=O)OC6)CC[C@]5(O)[C@@H]4CC[C@]3(O)C2)[C@H](O)[C@H](O)[C@H]1O` [ouabain, Ouabain] was tested, and the “change in corneal thickness (swelling)” value [2] was 24%.

With benzalkonium chloride the “wound / change of corneal transparency” value (reconstructed corneas [3]) was “caused wounds to the centre of the cornea”, the “live-dead staining, epithelial cells” value (reconstructed corneas [4]) was “some dead and dying cells but mostly live cells” and the “live-dead staining, stromal cells” value (reconstructed corneas [4]) was “mostly alive”. For the same compound, the “penetration into the stromal compartment” value (reconstructed corneas [4]) was “little/no penetration of solution into the stromal compartment”.

In the case of `[Gd]` [gadolinium], the “sensitivity of the nonselective cation current” value [5] is reported as “not sensitive”.

FGF-2: basic fibroblast growth factor was tested, and the “Response to Growth Factors, Normal Cells” value ([6]; FGF-2 (50 ng/ml)) was “Angiogenesis”, the “Response to Growth Factors, Normal Cells” value ([6]; FGF-2, concentration not given) was “Cell death” and the “Response to Growth Factors, Cell Lines” value ([7]; FGF-2 (50 ng/ml)) was “Angiogenesis”. The “Response to Growth Factors, Cell Lines” value ([7]; FGF-2, concentration not given) was “Cell death”.

`[Ba+2]` [barium] was tested, and the “sensitivity of the nonselective cation current” value [5] was “not sensitive” and the “effect on the FFA-activated current” value ([1]; 100 μM FFA) was “blocked”.
